Numbers after ± are expanded uncertainties.
Conditions: 99.6 kPa, Liquid; for kinematic viscosity: Capillary tube (Ostwald / Ubbelohde) method; for mass density: Vibrating tube method

`CNC(C)=O` [N-methylacetamide] gave a kinematic viscosity (308.15 K) of 3.79e-06 ± 4.6e-08 m2/s, a mass density (308.15 K) of 945.85 ± 1.9 kg/m3 and a kinematic viscosity (313.15 K) of 3.35e-06 ± 4.1e-08 m2/s. It also gave a mass density (313.15 K) of 941.63 ± 1.9 kg/m3, a kinematic viscosity (318.15 K) of 2.99e-06 ± 3.7e-08 m2/s and a mass density (318.15 K) of 937.44 ± 1.9 kg/m3. It also gave a kinematic viscosity (323.15 K) of 2.68e-06 ± 3.3e-08 m2/s, a mass density (323.15 K) of 933.24 ± 1.9 kg/m3 and a kinematic viscosity (328.15 K) of 2.42e-06 ± 3e-08 m2/s. The mass density (328.15 K) was 929.07 ± 1.9 kg/m3.

Reference: the NIST ThermoML archive (doi:10.1021/acs.jced.7b00494)
